Test results published in patent publication US10583137B2, “Triazole DAGLα inhibitors” (THE SCRIPPS RESEARCH INSTITUTE, priority 2015, dated 2020).
Like-named read-outs stand apart in the source and are kept apart here.

How the values were obtained:
DAGLβ [1] = molecular target: T1, DAGLβ (Mus musculus (Mouse), UniProt Q91WC9); test: in vivo ABPP coupled to quantitative mass spectrometry (FP-biotin, ReDiMe); settings: brain proteomes of treated mice
Protocol: (§1) The extent of these target profiles were confirmed by performing ABPP coupled to high-resolution, quantitative mass spectrometry (MS). Briefly, brain proteomes from compound and vehicle-treated mice were incubated with the serine hydrolase directed activity-based probe FP-biotin, and probe-labeled enzymes were enriched by streptavidin chromatography, digested on bead with trypsin, and the resulting tryptic peptides modified by reductive dimethylation (ReDiMe) of lysine residues using isotopically heavy and light formaldehyde, respectively. In these experiments, inhibited serine hydrolases are identified as enzymes showing low heavy/light ReDiMe ratios.

DAGLα [2] = molecular target: T2, DAGLα (Mus musculus (Mouse), UniProt Q6WQJ1); test: as above; settings: brain proteomes of treated mice
Protocol: as §1

BCHE = BCHE (Mus musculus (Mouse), UniProt Q03311); test: as above; settings: brain proteomes of treated mice
Protocol: as §1

ABHD6 [3] = molecular target: T3, ABHD6 (Mus musculus (Mouse), UniProt Q8R2Y0); test: as above; settings: brain proteomes of treated mice
Protocol: as §1

CES1C = CES1C (Mus musculus (Mouse), UniProt P23953); test: as above; settings: brain proteomes of treated mice
Protocol: as §1

DAGLα (hDAGLα-FLAG) = DAGLα (hDAGLα-FLAG) (Homo sapiens (Human), UniProt Q9Y4D2); test: competitive ABPP, membrane proteome of transfected HEK293T cells; format: biochemical; settings: read-out: DAGLα IC50
How it was run: (§2)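 HEK293T membrane proteome (1 mg/ml) expressing FLAG-tagged human DAGLα or DAGLβ, treated 30 min at room temperature with compound, then 30 min with HT-01 or FP-Rh probe (1 μM). Bands separated by SDS-PAGE were normalized to DMSO for IC50 by variable-slope fit.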

DAGLβ (hDAGLβ-FLAG) = DAGLβ (hDAGLβ-FLAG) (Homo sapiens (Human), UniProt Q8NCG7); test: as above; format: biochemical; settings: read-out: DAGLβ IC50
How it was run: as §2

DAGLs = test: time-course of DAGL inhibition and recovery in mice, competitive ABPP with compound 58 probe; format: in vivo, mouse; settings: 50 mg/kg
Protocol: (§3) Inhibition of DAGL in mice with DAGL compounds 14 and 17 was investigated as a function of time as determined by competitive ABPP using the compound 58 probe (1 μM, 30 min).

DAGLβ [4] = molecular target: T1, DAGLβ; test: gel-based ABPP of mouse brain proteome, endogenous DAGLs, probe compound 58 and HT-01; format: biochemical
Protocol: (§4) Compounds 14 and 17 were evaluated for activity and selectivity against endogenous DAGLs and other serine hydrolases in the mouse brain proteome using a ABPP of mouse brain proteome assay as described in Example 16. These experiments were performed using three different activity-based probesprobe compound 58 (targets DAGLα and DAGLβ), HT-01 (targets DAGLα and DAGLβ), and FP-Rh (broad-spectrum serine hydrolase-directed probe fluorophosphonate-rhodamine).
(§5) Data represent average values±SEM; n=3 per group. […] Compounds 14 and 17 had minimal and negligible binding, respectively, to cannabinoid CB1 (CB1R) and CB2 (CB2R) receptors as measured with a radioligand binding assay (IC50 values>1 μM) (data not shown).

DAGLα [5] = molecular target: T2, DAGLα; test: as above; format: biochemical
Protocol: as §4, §5

[6] = molecular target: cannabinoid CB2 (CB2R) receptor (Homo sapiens (Human), UniProt P34972); test: radioligand binding assay
Protocol: as §5

[7] = molecular target: cannabinoid CB1 (CB1R) receptor (Homo sapiens (Human), UniProt P21554); test: radioligand binding assay
Protocol: as §5

DAGLβ [8] = molecular target: T1, DAGLβ; test: in vivo inhibition, brain tissue analyzed by ABPP; settings: mice, intraperitoneal 3-50 mg/kg, 4 hr
Protocol: (§6) Mice were administered DAGL test compounds and the activity and selectivity of compounds 14 and 17 in vivo was assessed.
(§7) Compound 14, 17 or vehicle was administered intraperitoneally to male C57BL/6 mice across a dose range of 3-50 mg/kg. After 4 hr, the mice were sacrificed and brain tissue analyzed by ABPP, generally as described in Example 16, with compound probe 58, HT-01 probe, and FP-Rh probe.

DAGLα [9] = molecular target: T2, DAGLα; test: in vivo inhibition, brain tissue analyzed by ABPP; settings: male C57BL/6 mice, intraperitoneal, 4 hr; for ED50: mouse, ip
Protocol: as §6, §7

ABHD6 [10] = molecular target: T3, ABHD6; test: in vivo inhibition, brain tissue analyzed by ABPP; settings: mice, intraperitoneal 3-50 mg/kg, 4 hr
Protocol: as §6, §7

ABHD2 = ABHD2 (Mus musculus (Mouse), UniProt Q9QXM0); test: in vivo ABPP coupled to quantitative mass spectrometry (FP-biotin, ReDiMe); settings: brain proteomes of treated mice
Protocol: as §1

DAGLβ [11] = molecular target: T1, DAGLβ; test: time-course of DAGL inhibition and recovery in mice, competitive ABPP with compound 58 probe; format: in vivo; settings: 3 mg/kg
Protocol: as §3

DAGLα [12] = molecular target: T2, DAGLα; test: as above; format: in vivo; settings: 3 mg/kg
Protocol: as §3

T1 sequence (Q91WC9 whole entry): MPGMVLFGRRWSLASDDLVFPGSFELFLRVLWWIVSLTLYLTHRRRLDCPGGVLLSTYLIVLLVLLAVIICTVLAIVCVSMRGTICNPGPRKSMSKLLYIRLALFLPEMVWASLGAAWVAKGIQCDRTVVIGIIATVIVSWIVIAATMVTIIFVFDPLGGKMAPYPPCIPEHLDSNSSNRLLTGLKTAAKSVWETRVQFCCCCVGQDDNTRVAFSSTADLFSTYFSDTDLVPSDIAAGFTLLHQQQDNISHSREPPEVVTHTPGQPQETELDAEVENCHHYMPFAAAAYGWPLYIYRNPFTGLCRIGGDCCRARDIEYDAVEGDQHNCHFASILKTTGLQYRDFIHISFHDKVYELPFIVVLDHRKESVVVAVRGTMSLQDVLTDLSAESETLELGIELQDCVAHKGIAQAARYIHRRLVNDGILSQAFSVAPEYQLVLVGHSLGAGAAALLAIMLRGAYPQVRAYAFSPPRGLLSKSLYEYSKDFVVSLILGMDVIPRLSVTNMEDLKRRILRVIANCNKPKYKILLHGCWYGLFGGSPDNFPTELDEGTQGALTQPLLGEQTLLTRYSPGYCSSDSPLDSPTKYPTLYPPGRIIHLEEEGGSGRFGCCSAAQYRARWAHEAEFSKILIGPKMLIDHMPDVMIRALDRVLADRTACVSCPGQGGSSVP
T2 sequence (Q6WQJ1 whole entry): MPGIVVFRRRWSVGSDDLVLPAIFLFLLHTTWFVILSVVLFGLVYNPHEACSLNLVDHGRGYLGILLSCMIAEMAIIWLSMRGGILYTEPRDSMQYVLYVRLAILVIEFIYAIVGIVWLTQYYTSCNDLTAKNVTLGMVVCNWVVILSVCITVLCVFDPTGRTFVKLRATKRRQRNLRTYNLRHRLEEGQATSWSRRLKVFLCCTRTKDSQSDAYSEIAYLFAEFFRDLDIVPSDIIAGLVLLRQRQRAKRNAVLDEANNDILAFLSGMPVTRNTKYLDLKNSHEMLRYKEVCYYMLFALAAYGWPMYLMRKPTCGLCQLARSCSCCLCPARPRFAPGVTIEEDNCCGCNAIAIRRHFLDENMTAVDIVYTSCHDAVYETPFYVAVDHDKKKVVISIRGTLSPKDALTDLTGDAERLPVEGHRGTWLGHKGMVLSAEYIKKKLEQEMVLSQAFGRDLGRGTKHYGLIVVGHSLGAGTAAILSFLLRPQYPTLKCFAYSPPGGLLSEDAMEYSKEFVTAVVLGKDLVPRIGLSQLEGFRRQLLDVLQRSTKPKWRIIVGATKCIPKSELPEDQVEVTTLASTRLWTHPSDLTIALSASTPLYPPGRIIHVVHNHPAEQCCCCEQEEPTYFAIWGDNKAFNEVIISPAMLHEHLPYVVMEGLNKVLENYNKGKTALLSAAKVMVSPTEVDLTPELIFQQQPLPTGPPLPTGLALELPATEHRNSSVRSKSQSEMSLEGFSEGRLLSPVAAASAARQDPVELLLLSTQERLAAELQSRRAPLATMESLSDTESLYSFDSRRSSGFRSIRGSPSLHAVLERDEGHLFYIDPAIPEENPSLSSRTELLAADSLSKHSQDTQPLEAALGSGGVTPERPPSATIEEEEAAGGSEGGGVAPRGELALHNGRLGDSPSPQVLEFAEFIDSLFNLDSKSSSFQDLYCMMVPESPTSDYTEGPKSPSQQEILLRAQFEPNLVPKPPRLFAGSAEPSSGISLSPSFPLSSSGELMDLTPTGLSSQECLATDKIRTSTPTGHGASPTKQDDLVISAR
T3 sequence (Q8R2Y0 whole entry): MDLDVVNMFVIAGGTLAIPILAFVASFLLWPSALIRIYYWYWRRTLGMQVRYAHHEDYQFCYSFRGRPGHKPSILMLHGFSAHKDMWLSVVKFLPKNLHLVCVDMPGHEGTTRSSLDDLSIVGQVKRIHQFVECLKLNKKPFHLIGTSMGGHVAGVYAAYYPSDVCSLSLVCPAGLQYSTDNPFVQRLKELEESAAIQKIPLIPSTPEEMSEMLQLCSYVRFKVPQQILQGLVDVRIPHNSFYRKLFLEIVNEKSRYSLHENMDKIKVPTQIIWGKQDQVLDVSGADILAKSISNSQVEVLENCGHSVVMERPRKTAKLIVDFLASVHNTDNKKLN
DAGLβ (hDAGLβ-FLAG), sequence (Q8NCG7 whole entry): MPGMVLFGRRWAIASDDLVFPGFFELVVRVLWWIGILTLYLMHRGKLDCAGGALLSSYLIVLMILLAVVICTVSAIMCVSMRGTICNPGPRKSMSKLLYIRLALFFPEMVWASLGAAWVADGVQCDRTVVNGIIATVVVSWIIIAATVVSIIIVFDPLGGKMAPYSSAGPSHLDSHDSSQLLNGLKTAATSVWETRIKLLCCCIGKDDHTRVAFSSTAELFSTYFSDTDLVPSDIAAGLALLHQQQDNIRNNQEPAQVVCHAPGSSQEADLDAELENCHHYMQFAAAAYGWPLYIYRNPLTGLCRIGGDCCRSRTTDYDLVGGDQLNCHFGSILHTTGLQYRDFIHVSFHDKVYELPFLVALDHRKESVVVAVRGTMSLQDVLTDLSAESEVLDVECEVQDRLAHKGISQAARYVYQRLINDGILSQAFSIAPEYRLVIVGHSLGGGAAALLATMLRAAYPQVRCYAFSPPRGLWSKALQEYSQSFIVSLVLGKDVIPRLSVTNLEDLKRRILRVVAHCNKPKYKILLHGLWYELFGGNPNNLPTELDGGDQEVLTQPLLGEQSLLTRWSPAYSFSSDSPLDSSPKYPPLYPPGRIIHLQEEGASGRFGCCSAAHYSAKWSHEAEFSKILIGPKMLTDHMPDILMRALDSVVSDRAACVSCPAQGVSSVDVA
cannabinoid CB2 (CB2R) receptor, sequence (P34972 whole entry): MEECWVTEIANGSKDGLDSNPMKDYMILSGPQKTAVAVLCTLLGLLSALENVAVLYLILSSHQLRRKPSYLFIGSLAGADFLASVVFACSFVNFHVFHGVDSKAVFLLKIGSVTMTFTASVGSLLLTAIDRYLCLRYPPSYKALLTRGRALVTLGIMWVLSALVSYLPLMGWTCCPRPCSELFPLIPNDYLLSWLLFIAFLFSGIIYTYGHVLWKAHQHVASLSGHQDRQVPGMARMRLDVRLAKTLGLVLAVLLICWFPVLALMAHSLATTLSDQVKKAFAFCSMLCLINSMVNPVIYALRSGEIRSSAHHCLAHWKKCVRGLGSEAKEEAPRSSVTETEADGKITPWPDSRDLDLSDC
cannabinoid CB1 (CB1R) receptor, sequence (P21554 whole entry): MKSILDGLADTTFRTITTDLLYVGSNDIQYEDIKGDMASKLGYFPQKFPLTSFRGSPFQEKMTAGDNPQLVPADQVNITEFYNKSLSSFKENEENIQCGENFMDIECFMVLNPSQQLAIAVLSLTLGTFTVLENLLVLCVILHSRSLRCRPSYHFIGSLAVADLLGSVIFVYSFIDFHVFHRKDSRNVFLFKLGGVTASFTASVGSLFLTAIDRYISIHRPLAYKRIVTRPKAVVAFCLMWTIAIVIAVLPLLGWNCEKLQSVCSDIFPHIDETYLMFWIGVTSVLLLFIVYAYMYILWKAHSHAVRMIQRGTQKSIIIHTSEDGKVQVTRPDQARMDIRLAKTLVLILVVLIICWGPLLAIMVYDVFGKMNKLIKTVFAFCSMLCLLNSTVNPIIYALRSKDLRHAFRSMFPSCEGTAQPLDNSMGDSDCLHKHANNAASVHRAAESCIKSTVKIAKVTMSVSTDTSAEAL
DAGLα (hDAGLα-FLAG), sequence (Q9Y4D2 whole entry): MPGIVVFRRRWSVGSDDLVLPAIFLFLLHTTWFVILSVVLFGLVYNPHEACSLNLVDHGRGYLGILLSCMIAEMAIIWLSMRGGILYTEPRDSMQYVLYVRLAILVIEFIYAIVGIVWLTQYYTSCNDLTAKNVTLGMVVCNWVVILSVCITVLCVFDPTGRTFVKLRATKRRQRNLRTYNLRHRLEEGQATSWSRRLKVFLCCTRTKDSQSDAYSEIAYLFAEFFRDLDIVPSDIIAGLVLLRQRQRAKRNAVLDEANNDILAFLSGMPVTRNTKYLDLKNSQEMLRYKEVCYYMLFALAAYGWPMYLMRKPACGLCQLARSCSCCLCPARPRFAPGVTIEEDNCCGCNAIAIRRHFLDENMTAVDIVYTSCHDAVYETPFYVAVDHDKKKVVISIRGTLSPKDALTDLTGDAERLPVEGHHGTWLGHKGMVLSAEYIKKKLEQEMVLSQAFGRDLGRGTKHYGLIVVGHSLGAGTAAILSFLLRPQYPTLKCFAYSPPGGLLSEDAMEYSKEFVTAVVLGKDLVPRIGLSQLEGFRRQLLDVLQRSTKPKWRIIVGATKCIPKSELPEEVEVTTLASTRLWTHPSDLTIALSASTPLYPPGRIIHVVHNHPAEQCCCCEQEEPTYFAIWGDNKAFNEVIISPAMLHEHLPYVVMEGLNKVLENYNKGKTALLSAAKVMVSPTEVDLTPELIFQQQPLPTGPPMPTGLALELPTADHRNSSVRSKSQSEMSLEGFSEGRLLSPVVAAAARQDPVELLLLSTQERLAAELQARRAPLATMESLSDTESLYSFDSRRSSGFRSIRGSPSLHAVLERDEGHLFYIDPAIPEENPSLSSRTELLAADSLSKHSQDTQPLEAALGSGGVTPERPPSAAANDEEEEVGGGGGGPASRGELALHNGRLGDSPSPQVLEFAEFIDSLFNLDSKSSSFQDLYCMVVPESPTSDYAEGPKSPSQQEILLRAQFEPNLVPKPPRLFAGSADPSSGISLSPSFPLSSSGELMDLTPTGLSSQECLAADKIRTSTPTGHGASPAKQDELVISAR
ABHD2, sequence (Q9QXM0 whole entry): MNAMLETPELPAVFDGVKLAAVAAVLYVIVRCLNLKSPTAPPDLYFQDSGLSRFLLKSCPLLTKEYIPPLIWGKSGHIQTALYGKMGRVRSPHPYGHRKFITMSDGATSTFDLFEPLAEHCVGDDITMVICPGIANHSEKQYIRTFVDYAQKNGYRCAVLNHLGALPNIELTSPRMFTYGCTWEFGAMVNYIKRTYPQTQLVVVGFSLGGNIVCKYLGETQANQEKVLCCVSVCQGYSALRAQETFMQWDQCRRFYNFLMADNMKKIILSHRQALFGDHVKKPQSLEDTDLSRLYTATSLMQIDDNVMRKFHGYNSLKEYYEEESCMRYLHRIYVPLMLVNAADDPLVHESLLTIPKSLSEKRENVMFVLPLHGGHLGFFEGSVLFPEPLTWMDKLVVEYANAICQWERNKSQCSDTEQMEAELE

SMILES: C#CCO[C@@H]1CC[C@H](Cc2ccccc2)N(C(=O)n2ncc(C(O)(c3ccc(F)cc3)c3ccc(F)cc3)n2)C1 [Compound 14, ((2R,5R)-2-Benzyl-5-(prop-2-ynyloxy)piperidin-1-yl)(4-(bis(4-fluorophenyl)(hydroxy)methyl)-2H-1,2,3-triazol-2-yl)methanone]
- inhibition of DAGLβ by quantitative MS (DAGLβ [1]): strongly
- inhibition of DAGLα by quantitative MS (DAGLα [2]): complete inhibition
- heavy/light ReDiMe ratio, BCHE (off-target) (BCHE): < 0.5
- heavy/light ReDiMe ratio, ABHD6 (off-target) (ABHD6 [3]): < 0.5
- heavy/light ReDiMe ratio, CES1C (off-target) (CES1C): < 0.5
- IC50 (DAGLα (hDAGLα-FLAG)): ≤ 0.4 µM
- IC50 (DAGLβ (hDAGLβ-FLAG)): ≤ 0.4 µM
- duration of sustained inhibition of DAGLs (DAGLs): up to 8 hr
- DAGL activity at 24-hr post dosing (DAGLs): partial recovery
- IC50 (DAGLβ [4]): 0.0023 to 0.0048 µM
- IC50 (DAGLα [5]): 0.0005 to 0.0012 µM
- IC50 [6]: > 1 µM
- IC50 [7]: > 1 µM
- inhibition of DAGLβ in vivo (DAGLβ [8]): inhibited
- dose with full inhibition of DAGLα (DAGLα [9]): 30 to 50 mg/kg
- ED50 (DAGLα [9]): 5 to 10 mg/kg
- inhibition of ABHD6 in vivo (ABHD6 [10]): inhibited

SMILES: CC(C)(C)OC(=O)N1CCN(C(=O)n2cc(-c3ccc(OC(F)(F)F)cc3)nn2)C(Cc2ccccc2)C1 (stereo not shown) [Compound 17, tert-Butyl 3-benzyl-4-(4-(4-(trifluoromethoxy)phenyl)-1H-1,2,3-triazole-1-carbonyl)piperazine-1-carboxylate]
- inhibition of DAGLβ by quantitative MS (DAGLβ [1]): partially
- heavy/light ReDiMe ratio, ABHD2 (off-target) (ABHD2): < 0.5
- inhibition of DAGLα by quantitative MS (DAGLα [2]): complete inhibition
- heavy/light ReDiMe ratio, ABHD6 (off-target) (ABHD6 [3]): < 0.5
- heavy/light ReDiMe ratio, CES1C (off-target) (CES1C): < 0.5
- IC50 (DAGLα (hDAGLα-FLAG)): ≤ 0.4 µM
- IC50 (DAGLβ (hDAGLβ-FLAG)): ≤ 0.4 µM
- inhibition of DAGLβ (DAGLβ [11]): inhibited
- time by which DAGLα enzyme activity recovered (DAGLα [12]): ≤ 4 h
- time to substantial inhibition of DAGLα after administration (DAGLα [12]): ≤ 30 min
- duration of sustained inhibition of DAGLs (DAGLs): up to 8 hr
- DAGL activity at 24-hr post dosing (DAGLs): partial recovery
- IC50 (DAGLβ [4]; mouse brain proteome, probes 1 μM, 30 min, read-out: IC50, DAGLβ labeling by compound 58 and HT-01): 0.0023 to 0.0048 µM
- IC50 (DAGLα [5]; mouse brain proteome, probes 1 μM, 30 min, read-out: IC50, DAGLα labeling by compound 58 and HT-01): 0.0005 to 0.0012 µM
- IC50 ([6]; radioligand binding assay, read-out: IC50, CB2R binding): > 1 µM
- IC50 ([7]; radioligand binding assay, read-out: IC50, CB1R binding): > 1 µM
- inhibition of DAGLβ in vivo (DAGLβ [8]): inhibited
- dose with full inhibition of DAGLα (DAGLα [9]): 30 to 50 mg/kg
- ED50 (DAGLα [9]): 5 to 10 mg/kg
- inhibition of ABHD6 in vivo (ABHD6 [10]): inhibited
